# Measurements: the supplement of paper PMC13207355
# Where a name gives a salt, the structure may show the parent alone.
# How the values were obtained:
# Conditions in all cases: exposure time: 72 h
# [1] = system: E13 (patient-derived glioblastoma stem cells of classical subtype); experiment: surviving fraction (nuclei count normalised to DMSO); higher = more cells surviving (less toxic)
# [2] = system: E21 (patient-derived glioblastoma stem cells of mesenchymal subtype); experiment: as above
# [3] = system: E34 (patient-derived glioblastoma stem cells of proneural subtype); experiment: as above
# [4] = system: E31 (patient-derived glioblastoma stem cells of proneural subtype); experiment: as above
# [5] = system: E28 (patient-derived glioblastoma stem cells of classical subtype); experiment: as above
# [6] = system: E57 (patient-derived glioblastoma stem cells of mesenchymal subtype); experiment: as above
# [7] = system: FT3469 (normal neural stem cell line); experiment: as above
# [8] = system: E13; experiment: phenotypic distance (Euclidean, principal components) from DMSO controls (arbitrary units); higher = stronger morphological change
# [9] = system: E21; experiment: as above
# [10] = system: E34; experiment: as above
# [11] = system: E31; experiment: as above
# [12] = system: E28; experiment: as above
# [13] = system: E57; experiment: as above
# [14] = system: FT3469; experiment: as above
# 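Wherever phenotypic distance (Euclidean, principal components) from DMSO controls is given: cell Painting imaging in 384-well plates, CellProfiler features reduced to at least 20 principal components, Euclidean distance versus same-plate DMSO vehicle wells (0.1% v/v), median over six images per well.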
# 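Wherever surviving fraction (nuclei count normalised to DMSO) is given: nuclei counted by high-content imaging of Hoechst-stained cells in laminin-coated 384-well plates, relative to 0.1% DMSO vehicle wells, with staurosporine as cell-death control.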
smiles,measurement,setting,value
COC(=O)[C@@H]1[C@H]2C[C@H]3c4[nH]c5ccccc5c4CCN3C[C@@H]2CC[C@@H]1O [Yohimbine hydrochloride],surviving fraction,[1]; 4.11523 nM,0.88
same,surviving fraction,[1]; 12.34567901 nM,0.94
same,surviving fraction,[1]; 37.037 nM,1.03
same,surviving fraction,[1]; 111.1111111 nM,0.984
same,surviving fraction,[1]; 333.333 nM,1.01
same,surviving fraction,[1]; 1000 nM,0.876
same,surviving fraction,[1]; 3000 nM,0.986
same,surviving fraction,[2]; 4.11523 nM,0.896
same,surviving fraction,[2]; 12.34567901 nM,1.01
same,surviving fraction,[2]; 37.037 nM,0.994
same,surviving fraction,[2]; 111.1111111 nM,1.06
same,surviving fraction,[2]; 333.333 nM,1.03
same,surviving fraction,[2]; 1000 nM,1.01
same,surviving fraction,[2]; 3000 nM,1.02
same,surviving fraction,[3]; 4.11523 nM,0.932
same,surviving fraction,[3]; 12.34567901 nM,0.932
same,surviving fraction,[3]; 37.037 nM,0.912
same,surviving fraction,[3]; 111.1111111 nM,1.05
same,surviving fraction,[3]; 333.333 nM,0.932
same,surviving fraction,[3]; 1000 nM,0.959
same,surviving fraction,[3]; 3000 nM,0.892
same,surviving fraction,[4]; 4.11523 nM,0.959
same,surviving fraction,[4]; 12.34567901 nM,0.999
same,surviving fraction,[4]; 37.037 nM,1.18
same,surviving fraction,[4]; 111.1111111 nM,0.859
same,surviving fraction,[4]; 333.333 nM,0.951
same,surviving fraction,[4]; 1000 nM,1.07
same,surviving fraction,[4]; 3000 nM,0.928
same,surviving fraction,[5]; 4.11523 nM,1.01
same,surviving fraction,[5]; 12.34567901 nM,0.965
same,surviving fraction,[5]; 37.037 nM,1.04
same,surviving fraction,[5]; 111.1111111 nM,0.945
same,surviving fraction,[5]; 333.333 nM,1.15
same,surviving fraction,[5]; 1000 nM,0.948
same,surviving fraction,[5]; 3000 nM,0.948
same,surviving fraction,[6]; 4.11523 nM,1.03
same,surviving fraction,[6]; 12.34567901 nM,1.07
same,surviving fraction,[6]; 37.037 nM,0.994
same,surviving fraction,[6]; 111.1111111 nM,0.981
same,surviving fraction,[6]; 333.333 nM,0.979
same,surviving fraction,[6]; 1000 nM,0.979
same,surviving fraction,[6]; 3000 nM,1.01
same,surviving fraction,[7]; 4.11523 nM,0.957
same,surviving fraction,[7]; 12.34567901 nM,1.05
same,surviving fraction,[7]; 37.037 nM,0.936
same,surviving fraction,[7]; 111.1111111 nM,0.853
same,surviving fraction,[7]; 333.333 nM,1.04
same,surviving fraction,[7]; 1000 nM,0.975
same,surviving fraction,[7]; 3000 nM,1.01
same,phenotypic distance,[8]; 4.11523 nM,0.924
same,phenotypic distance,[8]; 12.34567901 nM,0.56
same,phenotypic distance,[8]; 37.037 nM,0.624
same,phenotypic distance,[8]; 111.1111111 nM,0.517
same,phenotypic distance,[8]; 333.333 nM,0.539
same,phenotypic distance,[8]; 1000 nM,0.622
same,phenotypic distance,[8]; 3000 nM,0.73
same,phenotypic distance,[9]; 4.11523 nM,0.527
same,phenotypic distance,[9]; 12.34567901 nM,0.576
same,phenotypic distance,[9]; 37.037 nM,0.624
same,phenotypic distance,[9]; 111.1111111 nM,0.545
same,phenotypic distance,[9]; 333.333 nM,0.676
same,phenotypic distance,[9]; 1000 nM,0.456
same,phenotypic distance,[9]; 3000 nM,0.417
same,phenotypic distance,[10]; 4.11523 nM,0.815
same,phenotypic distance,[10]; 12.34567901 nM,0.668
same,phenotypic distance,[10]; 37.037 nM,0.596
same,phenotypic distance,[10]; 111.1111111 nM,0.623
same,phenotypic distance,[10]; 333.333 nM,0.866
same,phenotypic distance,[10]; 1000 nM,0.744
same,phenotypic distance,[10]; 3000 nM,0.647
same,phenotypic distance,[11]; 4.11523 nM,0.598
same,phenotypic distance,[11]; 12.34567901 nM,0.58
same,phenotypic distance,[11]; 37.037 nM,0.688
same,phenotypic distance,[11]; 111.1111111 nM,0.658
same,phenotypic distance,[11]; 333.333 nM,0.454
same,phenotypic distance,[11]; 1000 nM,0.521
same,phenotypic distance,[11]; 3000 nM,0.828
same,phenotypic distance,[12]; 4.11523 nM,0.456
same,phenotypic distance,[12]; 12.34567901 nM,0.689
same,phenotypic distance,[12]; 37.037 nM,1.18
same,phenotypic distance,[12]; 111.1111111 nM,0.639
same,phenotypic distance,[12]; 333.333 nM,0.696
same,phenotypic distance,[12]; 1000 nM,0.645
same,phenotypic distance,[12]; 3000 nM,0.333
same,phenotypic distance,[13]; 4.11523 nM,0.343
same,phenotypic distance,[13]; 12.34567901 nM,0.457
same,phenotypic distance,[13]; 37.037 nM,0.558
same,phenotypic distance,[13]; 111.1111111 nM,0.582
same,phenotypic distance,[13]; 333.333 nM,0.386
same,phenotypic distance,[13]; 1000 nM,0.804
same,phenotypic distance,[13]; 3000 nM,0.576
same,phenotypic distance,[14]; 4.11523 nM,0.568
same,phenotypic distance,[14]; 12.34567901 nM,0.613
same,phenotypic distance,[14]; 37.037 nM,0.433
same,phenotypic distance,[14]; 111.1111111 nM,1.24
same,phenotypic distance,[14]; 333.333 nM,0.516
same,phenotypic distance,[14]; 1000 nM,0.514
same,phenotypic distance,[14]; 3000 nM,0.55
Nc1ccn([C@H]2CC[C@@H](CO)O2)c(=O)n1 [Zalcitabine],surviving fraction,[1]; 4.1 nM,0.88
same,surviving fraction,[1]; 12.3 nM,1.02
same,surviving fraction,[1]; 37 nM,1.01
same,surviving fraction,[1]; 111.1 nM,0.953
same,surviving fraction,[1]; 333.3 nM,0.94
same,surviving fraction,[1]; 1000 nM,1.01
same,surviving fraction,[1]; 3000 nM,0.913
same,surviving fraction,[2]; 4.1 nM,0.917
same,surviving fraction,[2]; 12.3 nM,0.894
same,surviving fraction,[2]; 37 nM,1.08
same,surviving fraction,[2]; 111.1 nM,0.99
same,surviving fraction,[2]; 333.3 nM,0.9
same,surviving fraction,[2]; 1000 nM,0.987
same,surviving fraction,[2]; 3000 nM,0.979
same,surviving fraction,[3]; 4.1 nM,0.869
same,surviving fraction,[3]; 12.3 nM,0.954
same,surviving fraction,[3]; 37 nM,1.05
same,surviving fraction,[3]; 111.1 nM,0.887
same,surviving fraction,[3]; 333.3 nM,0.896
same,surviving fraction,[3]; 1000 nM,0.977
same,surviving fraction,[3]; 3000 nM,0.802
same,surviving fraction,[4]; 4.1 nM,0.933
same,surviving fraction,[4]; 12.3 nM,1.11
same,surviving fraction,[4]; 37 nM,0.978
same,surviving fraction,[4]; 111.1 nM,1.13
same,surviving fraction,[4]; 333.3 nM,0.919
same,surviving fraction,[4]; 1000 nM,0.885
same,surviving fraction,[4]; 3000 nM,0.972
same,surviving fraction,[5]; 4.1 nM,1.04
same,surviving fraction,[5]; 12.3 nM,1.04
same,surviving fraction,[5]; 37 nM,0.97
same,surviving fraction,[5]; 111.1 nM,1.13
same,surviving fraction,[5]; 333.3 nM,1.01
same,surviving fraction,[5]; 1000 nM,1.12
same,surviving fraction,[5]; 3000 nM,0.87
same,surviving fraction,[6]; 4.1 nM,1.06
same,surviving fraction,[6]; 12.3 nM,0.945
same,surviving fraction,[6]; 37 nM,0.991
same,surviving fraction,[6]; 111.1 nM,1.09
same,surviving fraction,[6]; 333.3 nM,0.982
same,surviving fraction,[6]; 1000 nM,1.02
same,surviving fraction,[6]; 3000 nM,1.05
same,surviving fraction,[7]; 4.1 nM,1.11
same,surviving fraction,[7]; 12.3 nM,1.03
same,surviving fraction,[7]; 37 nM,0.953
same,surviving fraction,[7]; 111.1 nM,1.1
same,surviving fraction,[7]; 333.3 nM,1.02
same,surviving fraction,[7]; 1000 nM,1.11
same,surviving fraction,[7]; 3000 nM,0.989
same,phenotypic distance,[8]; 4.1 nM,0.723
same,phenotypic distance,[8]; 12.3 nM,0.719
same,phenotypic distance,[8]; 37 nM,0.578
same,phenotypic distance,[8]; 111.1 nM,0.722
same,phenotypic distance,[8]; 333.3 nM,0.483
same,phenotypic distance,[8]; 1000 nM,0.498
same,phenotypic distance,[8]; 3000 nM,0.729
same,phenotypic distance,[9]; 4.1 nM,0.578
same,phenotypic distance,[9]; 12.3 nM,0.976
same,phenotypic distance,[9]; 37 nM,0.36
same,phenotypic distance,[9]; 111.1 nM,0.783
same,phenotypic distance,[9]; 333.3 nM,0.577
same,phenotypic distance,[9]; 1000 nM,0.331
same,phenotypic distance,[9]; 3000 nM,0.684
same,phenotypic distance,[10]; 4.1 nM,0.915
same,phenotypic distance,[10]; 12.3 nM,0.593
same,phenotypic distance,[10]; 37 nM,0.379
same,phenotypic distance,[10]; 111.1 nM,0.902
same,phenotypic distance,[10]; 333.3 nM,1.02
same,phenotypic distance,[10]; 1000 nM,0.999
same,phenotypic distance,[10]; 3000 nM,0.863
same,phenotypic distance,[11]; 4.1 nM,0.62
same,phenotypic distance,[11]; 12.3 nM,0.852
same,phenotypic distance,[11]; 37 nM,0.398
same,phenotypic distance,[11]; 111.1 nM,0.47
same,phenotypic distance,[11]; 333.3 nM,0.46
same,phenotypic distance,[11]; 1000 nM,0.667
same,phenotypic distance,[11]; 3000 nM,0.528
same,phenotypic distance,[12]; 4.1 nM,0.369
same,phenotypic distance,[12]; 12.3 nM,0.351
same,phenotypic distance,[12]; 37 nM,0.756
same,phenotypic distance,[12]; 111.1 nM,0.552
same,phenotypic distance,[12]; 333.3 nM,0.598
same,phenotypic distance,[12]; 1000 nM,0.381
same,phenotypic distance,[12]; 3000 nM,0.783
same,phenotypic distance,[13]; 4.1 nM,1.83
same,phenotypic distance,[13]; 12.3 nM,0.448
same,phenotypic distance,[13]; 37 nM,0.547
same,phenotypic distance,[13]; 111.1 nM,0.703
same,phenotypic distance,[13]; 333.3 nM,0.624
same,phenotypic distance,[13]; 1000 nM,0.55
same,phenotypic distance,[13]; 3000 nM,0.703
same,phenotypic distance,[14]; 4.1 nM,3.61
same,phenotypic distance,[14]; 12.3 nM,0.392
same,phenotypic distance,[14]; 37 nM,0.547
same,phenotypic distance,[14]; 111.1 nM,0.849
same,phenotypic distance,[14]; 333.3 nM,0.603
same,phenotypic distance,[14]; 1000 nM,0.632
same,phenotypic distance,[14]; 3000 nM,0.569
